The text below walks through data of US10251392B2, “Antimicrobial devices and compositions” (Avent, Inc., priority 2004, dated 2019).

A short description of the data set: Light stability (discoloration by light exposure). It counts as physicochemical. The conditions noted are these: ambient / room light.

Description: The term “light stable” in the present context is meant to indicate either of two conditions; (i) no visible change in the color of the compositions of patient and wound care products after 24 hour exposure to light conditions typically encountered indoors in hospital, offices, or home that are normally used to aid visibility.

On to `[Ag+].c1ccc2[n-]cnc2c1` [silver benzimidazole complex], for which the “light sensitivity of the solid powder” value is on record as “remained unchanged”.
